Data on 17 compounds can be found in ChEMBL document CHEMBL5154893, “Design, Synthesis, and Biological Evaluation of Potent 20S Proteasome Activators for the Potential Treatment of α-Synucleinopathies” (J Med Chem, 2022).

Series [1] addresses T1, 20S proteasome (Homo sapiens) (UniProt P49721+P20618+P28074+P28062+P28065+P28072+P25786+P25787+P25788+P25789+P28066+P60900+O14818+Q8TAA3+P40306+A5LHX3+P49720+P28070+Q99436). As to the kind of experiment: Activation of human 20S proteosome assessed as substrate degradation using Suc-LLVY-AMC/Z-LLE-AMC/Boc-LLR-AMC as flurogenic substrate preincubated for 15 mins followed by substrate addition and measured after 1 hr by spectrometric analysis. The format is protein-complex assay.

The target in series [2] is T1, 20S proteasome (Homo sapiens). Put plainly: Activation of human 20S proteosome at trypsin-like site assessed as substrate degradation using Boc-LLR-AMC as flurogenic substrate preincubated for 15 mins followed by substrate addition and measured after 1 hr by spectrometric analysis. In kind it is protein-complex assay.
Series [3] has the same target. As to the kind of experiment: Activation of human 20S proteosome at caspase-like site assessed as maximum fold change in substrate degradation using Z-LLE-AMC as flurogenic substrate preincubated for 15 mins followed by substrate addition and measured after 1 hr by spectrometric analysis relative to control. The settings on record: filed as activator. The format is protein-complex assay.

For series [4] the target is unchanged. Put plainly: Activation of human 20S proteosome at trypsin-like site assessed as maximum fold change in substrate degradation using Boc-LLR-AMC as flurogenic substrate preincubated for 15 mins followed by substrate addition and measured after 1 hr by spectrometric analysis relative to control. In kind it is protein-complex assay. The settings on record: filed as activator.

Series [5] shares this target. Put plainly: Activation of human 20S proteosome assessed as maximum fold change in substrate degradation using Suc-LLVY-AMC/Z-LLE-AMC/Boc-LLR-AMC as flurogenic substrate preincubated for 15 mins followed by substrate addition and measured after 1 hr by spectrometric analysis relative to control. The format is protein-complex assay. Particulars: filed as activator.
The target is the same in series [6]. As to the kind of experiment: Activation of human 20S proteosome at chymotrypsin like site assessed as maximum fold change in substrate degradation using Suc-LLVY-AMC as flurogenic substrate preincubated for 15 mins followed by substrate addition and measured after 1 hr by spectrometric analysis relative to control. The format is protein-complex assay. The settings on record: filed as activator.

For series [7] the target is unchanged. As to the kind of experiment: Activation of human 20S proteosome at chymotrypsin like site assessed as substrate degradation using Suc-LLVY-AMC as flurogenic substrate preincubated for 15 mins followed by substrate addition and measured after 1 hr by spectrometric analysis. The format is protein-complex assay.
Series [8] has the same target. As to the kind of experiment: Activation of human 20S proteosome at caspase-like site assessed as substrate degradation using Z-LLE-AMC as flurogenic substrate preincubated for 15 mins followed by substrate addition and measured after 1 hr by spectrometric analysis. In kind it is protein-complex assay.
For series [9], the system named is HEK293T. Put plainly: Activation of 20S proteasome mediated full length alpha-synuclein A53T mutant degradation expressed in HEK293T cells assessed as residual protein at 15 uM incubated for 24 hrs by Western blot analysis relative to control. Particulars: Homo sapiens, filed as activator. The format is cell-based. (In general: A western blot detects proteins with antibodies after separation by electrophoresis.)

For series [10], the species on record is Homo sapiens. As to the kind of experiment: Activation of human 26S proteosome assessed as increase in fold change in proteolytic degradation using SUC-ANW-AMC/Z-LLE-AMC/Boc-LRRAMC as flurogenic substrate at 80 uM preincubated for 15 mins followed by substrate addition and measured after 1 hr by spectrometric analysis relative to control. The settings on record: filed as activator.

The species entered for series [11] is Homo sapiens. Put plainly: Activation of human 20S-proteosome mediated full length alpha-synuclein degradation by measuring remaining protein at 15 uM incubated for 45 mins by Western blot analysis relative to control.
The species named for series [12] is Homo sapiens. As to the kind of experiment: Activation of human 20S-proteosome mediated degradation of full length wild type alpha-synuclein at 10 uM incubated for 45 mins by Western blot analysis relative to control.
For series [13], the system named is HEK293T. As to the kind of experiment: Activation of 20S proteasome mediated full length alpha-synuclein A53T mutant degradation expressed in HEK293T cells assessed as residual protein at 5 uM incubated for 24 hrs by Western blot analysis relative to control. In kind it is cell-based. The settings on record: Homo sapiens.
The test system of the next series is HEK-293T. As to the kind of experiment: Cytotoxicity in human HEK293T cells assessed as reduction in cell viability at 15 uM incubated for 16 hrs by CellTiter-glo assay. In kind it is toxicity, cell-based. (In general: In ATP-based viability assays light output follows the ATP content of the culture.)
The species named for series [14] is Homo sapiens. As to the kind of experiment: Activation of human 20S-proteosome mediated full length alpha-synuclein degradation by measuring remaining protein at 10 uM incubated for 45 mins by Western blot analysis relative to control.
The species entered for series [15] is Homo sapiens. As to the kind of experiment: Activation of human 20S-proteosome mediated full length alpha-synuclein degradation by measuring remaining protein at 5 uM incubated for 45 mins by Western blot analysis relative to control.
For series [16], the species on record is Homo sapiens. Put plainly: Activation of human 20S-proteosome mediated full length alpha-synuclein degradation by measuring remaining protein at 2.5 uM incubated for 45 mins by Western blot analysis relative to control.
For series [17], the species on record is Homo sapiens. As to the kind of experiment: Activation of human 20S-proteosome mediated degradation of full length wild type alpha-synuclein at 15 uM incubated for 45 mins by Western blot analysis relative to control. Particulars: filed as activator.

In the case of `COC(=O)c1cccc(CN2c3ccccc3Sc3ccc(Cl)cc32)c1`, the EC200 came to 2.4 µM in series [1] (filed as activator), 1.9 µM in series [2] (filed as activator), 2.4 µM in series [7] (filed as activator) and 9.7 µM in series [8] (filed as activator). The fold change (FC) came out at 4 in series [3], 8 in series [4], 6 in [5] and 6 in series [6].
On to `Clc1ccc2c(c1)N(Cc1ccccc1)c1ccccc1S2`, for which the EC200 is 1.5 µM in [1] (filed as activator), 3.1 µM in series [2] (filed as activator), 2.8 µM in series [7] (filed as activator) and over 80 µM in series [8]. The values for the fold change (FC) in series [4], in [5] and in series [6] were 2, 2 and 3, respectively.
On to `NC(=O)CCCCN1c2ccccc2Sc2ccc(Cl)cc21`, for which the EC200 in series [1], in series [2], in series [7] and in series [8] was over 80 µM throughout.
Consider `CN(C(=O)CCN1c2ccccc2Sc2ccc(Cl)cc21)c1ccc(F)cc1`, for which the EC200 in series [1], in series [2], in [7] and in series [8] was over 80 µM in each case.
`COC(=O)c1ccc(CN2c3ccccc3Sc3ccc(Cl)cc32)cc1`: the EC200 in series [1] (filed as activator) amounted to 1.4 µM; in series [2] (filed as activator), 2.6 µM; in series [7] (filed as activator) it was 1.9 µM; in series [8] (filed as activator), 2.7 µM. For the same compound, the fold change (FC) was 7 in series [3]; 15 in [4]; 9 in [5]; 2 in the series listed under Homo sapiens [10]; 1.2 in series [6]. Also, the Activity with HEK293T [9] came out at 25%; in the series listed under Homo sapiens [11] (filed as activator), 33%.
On to `O=C(CCN1c2ccccc2Sc2ccc(Cl)cc21)N(c1ccc(F)cc1)c1ccc(F)cc1`, for which the Activity in the series listed under Homo sapiens [12] is 73%; in the series with HEK293T [13] it was 67%; with HEK-293T it was over 80%; in the series listed under Homo sapiens [14] it was 27%; in the series listed under Homo sapiens [15] it was 51%; in the series listed under Homo sapiens [11], 19%. Besides, in the series listed under Homo sapiens [16], the Activity was 69%. Besides, the EC200 in series [1] (filed as activator) turned out to be 0.4 µM; in series [2] (filed as activator), 0.3 µM; in [7] (filed as activator), 0.7 µM; in series [8] (filed as activator), 1.8 µM. For the same compound, the fold change (FC) in [3] was determined as 9.4; in [4], 6; in series [5] it was 11; in series [6] it was 9.4.
Take `O=[N+]([O-])c1cccc(CN2c3ccccc3Sc3ccc(Cl)cc32)c1`: the EC200 in [1] (filed as activator) was found to be 1.1 µM; in [2] (filed as activator), 1.6 µM; in [7] (filed as activator) it was 1.1 µM; in series [8] (filed as activator), 1.2 µM. Moreover, the fold change (FC) in series [3] amounted to 12; in series [4], 8; in [5] it was 8; in [6], 9.
In the case of `CC(C)(C)OC(=O)c1ccc(CN2c3ccccc3Sc3ccc(Cl)cc32)cc1`, the EC200 in series [1], in [2], in series [7] and in series [8] was over 80 µM throughout.
As to `CN(C)CCCN1c2ccccc2Sc2ccc(Cl)cc21`, the EC200 in series [1] (filed as activator) was 13.5 µM; in series [2], over 80 µM; in series [7] (filed as activator), 7 µM; in series [8], over 80 µM. Moreover, the results for the fold change (FC) (in [5]; in the series filed under Homo sapiens [10]; in [6]) were 4, 2 and 8, respectively. In addition, the figures for the Activity in the series listed under Homo sapiens [11] (filed as activator) and in the series listed under Homo sapiens [17] were 34% and 80%, respectively.
In the series listed under Homo sapiens [11], `CCOC(=O)[C@]1(c2ccccc2)N=C(c2ccc(OC)cc2)N(Cc2ccccc2)[C@@H]1c1ccc(NCc2ccccc2)cc1` displayed an Activity of 22%.
In the case of `O=C(CCN1c2ccccc2Sc2ccc(Cl)cc21)Nc1ccccc1`, the EC200 in series [1] (filed as activator) is 40 µM; in series [2] (filed as activator) it was 80 µM; in series [7] it was over 80 µM; in series [8], over 80 µM. Further, the fold change (FC) came to 2 in series [4] and 2.5 in series [5].
Regarding `Oc1ccc(CN2c3ccccc3Sc3ccc(Cl)cc32)cc1`, the EC200 in series [1], in series [2], in series [7] and in series [8] was over 80 µM throughout.
Consider `COc1cccc(CN2c3ccccc3Sc3ccc(Cl)cc32)c1`, for which the EC200 is 1.5 µM in [1] (filed as activator), 5.4 µM in series [2] (filed as activator), over 80 µM in series [7] and 1.3 µM in [8] (filed as activator). Also, the fold change (FC) in [3] is 4; in series [4] it was 2; in series [5], 4.
Regarding `CC(=O)Oc1ccc(CN2c3ccccc3Sc3ccc(Cl)cc32)cc1`, the EC200 in series [1], in series [2], in [7] and in series [8] was over 80 µM in each case.
As for `Nc1cccc(CN2c3ccccc3Sc3ccc(Cl)cc32)c1`, the EC200 in [1] (filed as activator) was 3.6 µM; in series [2] (filed as activator), 9.2 µM; in [7] (filed as activator), 6.5 µM; in series [8] (filed as activator), 3.8 µM. Moreover, the fold change (FC) came out at 10 in series [3], 10 in [4], 8 in series [5] and 9 in series [6].
Consider `CN(C)C(=O)CCN1c2ccccc2Sc2ccc(Cl)cc21`, for which the EC200 in series [1], in series [2], in series [7] and in series [8] was over 80 µM in each case.
As to `N#CCCCCN1c2ccccc2Sc2ccc(Cl)cc21`, the EC200 in [1], in series [2], in [7] and in [8] was over 80 µM throughout.
